From patent US9932333B2, “Benzothiazole compound and medicine containing same” (JAPAN SCIENCE AND TECHNOLOGY AGENCY, priority 2014, dated 2018)

How the values were obtained:
[1] = biological target: aggregated Aβ1-42 (Homo sapiens, UniProt P05067); experiment: Increase of the intensity ratio of oxygenation of aggregated Aβ1-42 (Example 5); assay type: biochemical; conditions: Aβ1-42 incubated 0, 1, 3, 6 hours; light 10 minutes, room temperature
Method: Then, the reaction was monitored with a mass spectrometer (MALDI-TOF MS).
Increase of the intensity ratio of oxygenation (%) was calculated according to (Intensity ratio of oxygenation of aggregated Aβ1-42 (incubated at 37° C. for the predetermined time))−(Intensity ratio of oxygenation of aggregated Aβ1-42 (incubated at 37° C. for 0 hours)).
The intensity ratio of oxygenation (%) was calculated according to (Total intensity of oxygen adducts)/((Intensity of non-oxygen adduct (native))+(Total intensity of oxygen adducts)).

[2] = biological target: T1, amylin (Homo sapiens, UniProt P10997); experiment: Oxidation reaction of amylin; assay type: biochemical
T1 construct: amylin, a hormone essential for glycemic control
T1 sequence (P10997 34-70 limits assumed): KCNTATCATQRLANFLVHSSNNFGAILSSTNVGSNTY
Method: (§1) Then, the reaction was monitored with a mass spectrometer (MALDI-TOF MS) or LC/MS (ESI-Q).
The amino acid analysis of oxidized Aβ1-42 and oxidized amylin (carried out by Peptide Institute, Inc.) was conducted. The oxidized Aβ1-42 and the oxidized amylin were enzymatically digested with endopeptidase Lys-C and chymotrypsin, respectively, and the obtained digests were analyzed with a mass spectrometer (MALD-TOF MS) and LC/MS/MS (ESI-Q-TOF).

[3] = biological target: Aβ1-42 (Homo sapiens, UniProt P05067); experiment: Fluorescence spectra in the presence or absence of Aβ1-42; assay type: binding; conditions: Aβ1-42 20 μM, 37° C., 3 hours
Aβ1-42, sequence (P05067 672-713 limits assumed): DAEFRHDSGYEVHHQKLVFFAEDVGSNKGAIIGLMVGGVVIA

[4] = system: nucleoside phosphorylase; experiment: Oxygenation ratio of aggregated to non-aggregated nucleoside phosphorylase (Example 8); assay type: biochemical; conditions: 4 μM, pH 7.4, room temperature, light 10 minutes
Method: (1) A phosphate buffer solution (10 mM, pH 7.4) containing nucleoside phosphorylase (0.1 mg/mL) was incubated at 60° C. The degree of thermal aggregation was monitored using a fluorescence assay kit (Protein Stability and Aggregation Assay Kit (ProFoldin, Hudson, Mo., USA)).
The reaction was monitored with a mass spectrometer (MALDI-TOF MS).
Each oxygenation ratio was calculated according to (Intensity ratio of oxygenation of aggregated Aβ1-42)/(Intensity ratio of oxygenation of non-aggregated Aβ1-42) and (Intensity ratio of oxygenation of aggregated nucleoside phosphorylase)/(Intensity ratio of oxygenation of non-aggregated nucleoside phosphorylase).

[5] = biological target: Aβ coexisting with angiotensin IV and methionine enkephalin (Homo sapiens, UniProt P05067); experiment: Oxygenation with Aβ coexisting with angiotensin IV and methionine enkephalin; assay type: biochemical
Aβ coexisting with angiotensin IV and methionine enkephalin, sequence (P05067 672-713): as the sequence (P05067 672-713 limits assumed) above
Source text: as §1

aggregated Aβ1-42, sequence (P05067 672-713 limits assumed): as above

C[n+]1c(-c2cc3c4c(c2)CCCN4CCC3)sc2cc(Br)ccc21 [1a] was tested, and the “increase of the intensity ratio of oxygenation” value [1] was “increase of the intensity ratio of oxygenation was observed with increase in the fluorescence intensity of thioflavin T”, the “selectivity for aggregated over monomeric amylin” value [2] was “selectively reacts with aggregated amylin without acting on monomeric amylin” and the oxygenation of amylin ([2]; 100 mmol %, light 500 nm, pH 7.4, 37° C.) was “time-dependent oxygenation at His-18 residue was observed”. For the same compound, the “oxygenation of amylin in a monomeric state” value ([2]; pre-incubation 0 h) was “Only a trace amount of an oxygenated form was detected”, the “oxygenation of amylin aggregated in advance” value ([2]; pre-incubation 1 hour and 2 hours) was “the ratio of oxygenized amylin was elevated” and the “fluorescence in the presence of Aβ compared with absence of Aβ” value [3] was “remarkably high as compared with that in the absence of Aβ”. The “oxygenation ratio (aggregated / non-aggregated nucleoside phosphorylase)” value [4] was “approximately 1.2” and the “selectivity of oxygenation with coexisting substrates” value [5] was “highly selective oxygenation of Aβ was observed”.
